Laboratory results taken from PubChem BioAssay (NCI).
“And” between values parts separate entries of the source, which are not always exact repeats. Equal values may be shown once.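 Compound exposure: 48 hours, 5 concentrations, 96-well plates. GI50 = concentration required for 50% inhibition of growth. TGI: concentration producing complete growth inhibition.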

tested on: MDA-MB-468 breast; assay: growth of human tumour cells (NCI), 48 h

SMILES	GI50	TGI
O=C(O)CCCCC(CCSCc1ccccc1)SCc1ccccc1 (centres undefined)	45100 nM	> 91400 nM
COc1cccc(-c2cc(=O)c3cc(N(C)C)ccc3[nH]2)c1	–	> 100000 nM and 59200 nM
O=C(CI)NC1Oc2ccccc2-c2oc(=O)c(-c3ccccc3)cc21 (centres undefined)	1790 nM	4320 nM
CC[CH2][Pb]([CH2]CC)([CH2]CC)[O]C(=O)C(F)(F)F	55.1 nM	153 nM
CCCCCc1ccc(S(=O)(=O)Nc2cccc(-c3csc(NC(=O)CCCCCN4CCN(C)CC4)n3)c2)cc1	1790 nM	3460 nM
O=c1oc2ccc(F)cc2c(=O)n1-c1ccc(F)cc1F	2760 nM	7780 nM
N#C/C(=C1C=C/C(=N/O)C(Br)=C/1)c1ccccc1	1530 nM	15000 nM
Cc1c(F)c(N)c2c(=O)cc(-c3ccc(NC(=O)CN(C)C)c(F)c3)oc2c1F	57.7 nM	394 nM
N#CSCC1CC(O)(c2ccccc2)C(c2ccccc2)C(c2ccc(Cl)cc2)O1 (centres undefined)	1440 nM	2850 nM
O=C1/C(=C/c2ccc(Br)cc2)C=C(c2ccccc2)N1CCc1ccccc1	1270 nM	7800 nM
CC1=C(C(=O)Nc2ccc3[nH]ncc3c2)C(c2ccc3ccccc3c2)CC(=O)N1 (centres undefined)	13900 nM	> 25000 nM
COc1ccc2[nH]c(O)c(/C=c3/cc4c(c(-c5cc(OC)c(OC)c(OC)c5)n3)=Nc3ccccc3-4)c2c1	2620 nM	11700 nM
CCOc1cccc(/C=N/NC(=O)c2ccccc2Nc2ccnc(C(F)(F)F)c2)c1O	271 nM	9280 nM
Cc1ccc(S(=O)(=O)N(CCOc2ccc(/C(N)=N/Cl)cc2)CCOc2ccc(/C(N)=N\Cl)cc2)cc1	3980 nM	21400 nM
CCNCCNc1cc(-c2ccc(C(=O)OC)cc2)c(C#N)c2nc3ccccc3n12	1370 nM	2860 nM
Cc1ccc(CS/C(=C\c2ccc([N+](=O)[O-])cc2)C(=O)c2ccc(F)cc2)cc1	3410 nM	16400 nM
COC(=O)CCCCN=Cc1c(O)c(O)c(C(C)C)c2cc(C)c(-c3c(C)cc4c(C(C)C)c(O)c(O)c(C=NCCCCC(=O)OC)c4c3O)c(O)c12	780 nM	3060 nM
O=[N+]([O-])/C=C\c1ccc(Cl)c(Cl)c1	1790 nM	3760 nM
O=C(NCCOCCOCCNc1cccc2c1C(=O)N(C1CCCNC1=O)C2=O)c1cc2c(o1)C(=O)c1ccccc1C2=O (centres undefined)	1610 nM	4430 nM
COc1ccc(C2=NN(C(=O)c3cc(OC)c(OC)c(OC)c3)C(c3ccc(C#N)cc3)C2)cc1OC (centres undefined)	419 nM	2890 nM
COc1cc(O)c2c(c1)/C=C/C[C@H](O)[C@H](O)C(=O)/C=C\C[C@H](C)OC2=O	3850 nM and 5600 nM	13300 nM and 20700 nM
O=C(Nc1ccc(N2CCNCC2)cc1)c1[nH]ncc1Nc1cc(Oc2ccccc2)ncn1	1990 nM	4830 nM
C[C@]12CC[C@H](O)CC1=CC[C@@H]1[C@@H]2CC[C@]2(C)C(c3cccnc3)=CC[C@@H]12	26900 nM	> 100000 nM

SMILES	GI50	TGI
Nc1ccn(C2O[C@H](CO)[C@@H](O)[C@@H]2O)c(=O)n1 (some centres undefined)	> 100000 nM	> 100000 nM
COc1cc(/C=C/c2cc(/C=C/c3ccc(O)c(OC)c3)n(-c3ccccc3)n2)ccc1O	271 nM	908 nM
COc1ccc(/C(=C2\O[C@@H]([C@H]3COC(C)(C)O3)[C@H]3OC(C)(C)O[C@@H]23)c2cc(OC)c(OC)c(OC)c2)cc1O	14500 nM	34100 nM
CN(C)CCNc1cc(-c2ccccc2)nc2ccccc12	3850 nM	16800 nM
COc1cc(OC)cc(-c2ccc(-c3ccc(C(=N)N)o3)o2)c1	2400 nM	4730 nM
O=C(CN1CCOCC1)Nc1ccc(Cn2nnc3c2C(=O)c2nnn(Cc4ccc(NC(=O)CN5CCOCC5)cc4)c2C3=O)cc1	208 nM	550 nM
CN(C)CCNC(=O)c1ccc(-c2nc3ccc4[nH]ncc4c3c3c2CCC3)cc1	448 nM	1490 nM
Oc1ccc(CSc2nnc(-c3cnccn3)n2-c2ccccc2)c2cccnc12	970 nM	> 20000 nM
COc1cc(/C=N/n2cnc3oc(-c4ccccc4)cc3c2=N)cc(CN2CCCC2)c1O	2010 nM	5080 nM
Cn1c(N2NC(=O)C(N=Nc3ccc(S(N)(=O)=O)cc3)C2=O)nc(-c2ccco2)c(C#N)c1=O (centres undefined)	1610 nM	6730 nM
COc1cccc(/C=N/NC(=O)c2ccccc2Nc2ccnc(C(F)(F)F)c2)c1O	218 nM	9620 nM
Cn1cc(-c2cnc3ccc(NC(=O)Nc4ccc(F)c(Br)c4)cc3n2)cn1	1410 nM	3860 nM
O=C1c2cccc(NCCN=Cc3cc(O)ccc3O)c2C(=O)c2c(NCCN=Cc3cc(O)ccc3O)cccc21	584 nM	2370 nM
CNC(=O)OCc1c(COC(=O)NC)c(-c2ccc(Cl)c(Cl)c2)n2c1SCC2	264 nM	1270 nM
CC1=C(CCCNS(C)(=O)=O)C2=C(C)C3(CC3)[C@@](C)(O)C(=O)C2=C1	354 nM	1660 nM
CCCCC/C(C=C(C#N)C#N)=C/c1ccccc1	10200 nM	27200 nM
O=C1c2c(c3c4ccccc4n(CCCCCCBr)c3c3[nH]c4ccccc4c23)C(=O)N1O	2820 nM	8180 nM
Cc1ccc2c(c1)C(=O)/C(=C/c1ncc([N+](=O)[O-])n1C)O2	1850 nM	4340 nM
CCCCC(=O)OCC1OC(n2cnc3c(=S)nc[nH]c32)C(OC(=O)CCCC)C1OC(=O)CCCC (centres undefined)	215 nM	1520 nM
COc1ccc2c(c1)c(-c1nc(-c3cn(C)c4ncccc34)cs1)cn2CCCN1CCCCC1	1800 nM	3550 nM
NCC(=O)NS(=O)(=O)OC[C@H]1O[C@@H](n2cnc3c(N)ncnc32)[C@H](O)[C@@H]1O	742 nM	2560 nM
CN1CCN(Cc2ccc(NC(=O)c3cncc(C#Cc4cnc(N)c5ccc(C#N)cc45)c3)cc2C(F)(F)F)CC1	60.8 nM	627 nM
